These are literature values, as cited in EP3142678B1, “USE OF CRANBERRY PROANTHOCYANIDINS WITH HERBAL COMPONENTS FOR TREATING AND PREVENTING URINARY TRACT INFECTIONS” (Specchiasol S.r.l., priority 2014, dated 2015).

Where two headings read alike, the source gives them in different places.

For this data set, the system named is slime-producing uropathogenic Escherichia coli strains. To be noted: for percentage of residual slime relative to the control: range over four strains; for reduced biofilms: fosfomycin 2000 mg/l.

Turning to `CC(=O)N[C@@H](CS)C(=O)O` [NAC, N-Acetylcysteine], the “percentage of residual slime relative to the control” value is 62.5-100% (0.007 mg/ml of NAC) and 26.2-64.1% (8 mg/ml of NAC). In addition, the “remaining exopolysaccharide matrix, of the amount found with the untreated control” value (pre-formed biofilms, NAC at the highest concentrations used) was 25-68%.

Regarding `C[C@@H]1O[C@@H]1P(=O)(O)O` [fosfomycin], the reduced biofilms was 40-57% (initial (5 h) biofilms) and 41-49% (mature (48 h) biofilms).
